Measured values from patent publication US11578069B2, “Compounds for inhibition of α4 β7 integrin” (Gilead Sciences, Inc., priority 2019, dated 2023).

Legend:
α4β7 integrin = biological target: T1, α4β7 integrin (Homo sapiens, UniProt P13612+P26010); experiment: α4β7 Integrin Cell Capture Assay; assay type: cell-based; conditions: capture of α4β7 integrin expressing RPM18866 cells on MadCAM-1 extracellular domain-coated plate
T1 construct: monitoring the capture of α4β7 integrin expressing cells; endogenous in cells; host or cells: RPMI8866
T1 sequence (P13612 34-1032): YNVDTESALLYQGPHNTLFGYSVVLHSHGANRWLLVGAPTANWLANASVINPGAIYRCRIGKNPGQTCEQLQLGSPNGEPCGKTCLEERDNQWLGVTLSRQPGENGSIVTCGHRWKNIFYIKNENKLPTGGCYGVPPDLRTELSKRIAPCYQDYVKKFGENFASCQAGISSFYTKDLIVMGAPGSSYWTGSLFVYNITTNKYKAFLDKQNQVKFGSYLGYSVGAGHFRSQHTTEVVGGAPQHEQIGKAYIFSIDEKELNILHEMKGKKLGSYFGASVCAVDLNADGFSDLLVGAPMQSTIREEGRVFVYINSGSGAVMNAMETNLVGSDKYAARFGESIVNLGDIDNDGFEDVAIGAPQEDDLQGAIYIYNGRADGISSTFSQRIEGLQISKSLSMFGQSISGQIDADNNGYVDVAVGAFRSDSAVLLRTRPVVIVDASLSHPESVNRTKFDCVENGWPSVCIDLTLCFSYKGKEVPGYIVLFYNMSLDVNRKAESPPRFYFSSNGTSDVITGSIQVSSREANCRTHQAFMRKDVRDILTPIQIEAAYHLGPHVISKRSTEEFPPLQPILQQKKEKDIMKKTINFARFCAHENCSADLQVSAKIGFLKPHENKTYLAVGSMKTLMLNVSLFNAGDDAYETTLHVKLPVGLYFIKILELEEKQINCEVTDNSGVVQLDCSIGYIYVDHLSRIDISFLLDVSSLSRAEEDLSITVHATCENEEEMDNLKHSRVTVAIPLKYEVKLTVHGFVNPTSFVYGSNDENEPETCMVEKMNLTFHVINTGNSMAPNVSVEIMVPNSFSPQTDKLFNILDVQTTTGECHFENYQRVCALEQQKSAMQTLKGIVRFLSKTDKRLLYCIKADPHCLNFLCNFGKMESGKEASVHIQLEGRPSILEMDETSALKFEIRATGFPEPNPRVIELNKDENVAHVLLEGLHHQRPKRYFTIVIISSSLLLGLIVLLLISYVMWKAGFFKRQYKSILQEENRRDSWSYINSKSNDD
T1 sequence (P26010 20-798): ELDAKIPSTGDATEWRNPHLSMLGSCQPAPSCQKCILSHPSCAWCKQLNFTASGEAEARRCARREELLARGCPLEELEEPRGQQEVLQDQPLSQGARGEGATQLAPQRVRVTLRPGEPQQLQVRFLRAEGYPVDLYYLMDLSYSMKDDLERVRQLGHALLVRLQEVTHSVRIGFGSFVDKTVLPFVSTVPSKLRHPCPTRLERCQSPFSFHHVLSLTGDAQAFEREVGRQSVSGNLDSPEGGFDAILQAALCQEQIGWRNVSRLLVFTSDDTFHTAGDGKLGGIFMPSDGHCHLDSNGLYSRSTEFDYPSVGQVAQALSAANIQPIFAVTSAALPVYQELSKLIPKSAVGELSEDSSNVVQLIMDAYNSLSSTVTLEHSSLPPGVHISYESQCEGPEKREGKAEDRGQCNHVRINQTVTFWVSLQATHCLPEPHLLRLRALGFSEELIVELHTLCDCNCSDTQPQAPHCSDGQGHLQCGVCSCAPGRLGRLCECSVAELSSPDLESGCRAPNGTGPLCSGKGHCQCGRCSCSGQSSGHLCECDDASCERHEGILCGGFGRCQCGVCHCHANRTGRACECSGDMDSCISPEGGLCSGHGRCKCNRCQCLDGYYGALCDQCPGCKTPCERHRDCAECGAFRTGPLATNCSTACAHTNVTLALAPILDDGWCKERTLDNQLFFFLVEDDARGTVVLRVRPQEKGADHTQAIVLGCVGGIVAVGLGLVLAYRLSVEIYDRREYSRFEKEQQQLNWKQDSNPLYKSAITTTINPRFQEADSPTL
Description: The potency of inhibitors in preventing α4β7 integrin interaction with MadCAM-1 was measured by monitoring the capture of α4β7 integrin expressing cells on a recombinant MadCAM-1 extracellular domain-coated plate.
384-well plates (Corning 3702) were coated with MadCAM-1 extracellular domain by dispensing 20 μL of MAdCAM-1 at 1.0 μg/mL per well and incubating overnight at 4° C. The plates were then washed with PBS and blocked with 3% BSA for 2 hours before being washed again.
(§1) RPM18866 cells were spun down and re-suspended in assay medium (DMEM+0.5% FBS+0.5 mM MnCl2) at a density of 0.5×10^6 cells/mL. The cells were then dispensed (60 μL/well) to a 384-well plate (Greiner 781280) that was previously spotted with 60 nL of test compound per well. The plates were incubated at 37° C. for 1 hour. 50 μL of cells were transferred to the blocked, MadCAM-1-coated plates and incubated for 30 minutes at 37° C. 10 μL of 12% glutaraldehyde containing Hoechst 33342 (0.06 mg/mL) was added to the cells (2% glutaraldehyde and 0.01 mg/mL final concentrations). The plates were incubated for 90 minutes at room temperature. The plates were then washed 3 times with 70 μL of PBS per well and imaged on a Cellomics ArrayScan instrument. The cells that were bound to the plate were counted and plotted against the compound concentration to determine the EC50 of the test compounds.

α4β1 integrin = biological target: T2, α4β1 integrin (Homo sapiens, UniProt P05556+P13612); experiment: α4β1 Cell Capture Assay; assay type: cell-based; conditions: capture of α4β1 expressing Jurkat cells on VCAM-1 extracellular domain-coated plate
T2 construct: monitoring the capture of α4β1 expressing cells; endogenous in cells; host or cells: Jurkat
Description: The potency of inhibitors in preventing α4β1 integrin interaction with VCAM-1 was measured by monitoring the capture of α4β1 expressing cells to a recombinant VCAM-1 extracellular domain-coated plate.
384-well plates (Corning 3702) were coated with VCAM-1 extracellular domain by dispensing 20 μL of VCAM-1 at 0.5 μg/ml per well and incubating overnight at 4° C. The plates were then washed with PBS and blocked with 3% BSA for 2 hours before being washed again.
as §1, with “Jurkat cells” for “RPM18866 cells”, “0.5×10^6 cells/ml.” for “0.5×10^6 cells/mL.”, “blocked, VCAM-1-coated” for “blocked, MadCAM-1-coated”, “10 μl” for “10 μL”, “0.01 mg/ml Hoechst 33342” for “0.01 mg/mL”

T2 sequence (P05556 21-798, one chain of several): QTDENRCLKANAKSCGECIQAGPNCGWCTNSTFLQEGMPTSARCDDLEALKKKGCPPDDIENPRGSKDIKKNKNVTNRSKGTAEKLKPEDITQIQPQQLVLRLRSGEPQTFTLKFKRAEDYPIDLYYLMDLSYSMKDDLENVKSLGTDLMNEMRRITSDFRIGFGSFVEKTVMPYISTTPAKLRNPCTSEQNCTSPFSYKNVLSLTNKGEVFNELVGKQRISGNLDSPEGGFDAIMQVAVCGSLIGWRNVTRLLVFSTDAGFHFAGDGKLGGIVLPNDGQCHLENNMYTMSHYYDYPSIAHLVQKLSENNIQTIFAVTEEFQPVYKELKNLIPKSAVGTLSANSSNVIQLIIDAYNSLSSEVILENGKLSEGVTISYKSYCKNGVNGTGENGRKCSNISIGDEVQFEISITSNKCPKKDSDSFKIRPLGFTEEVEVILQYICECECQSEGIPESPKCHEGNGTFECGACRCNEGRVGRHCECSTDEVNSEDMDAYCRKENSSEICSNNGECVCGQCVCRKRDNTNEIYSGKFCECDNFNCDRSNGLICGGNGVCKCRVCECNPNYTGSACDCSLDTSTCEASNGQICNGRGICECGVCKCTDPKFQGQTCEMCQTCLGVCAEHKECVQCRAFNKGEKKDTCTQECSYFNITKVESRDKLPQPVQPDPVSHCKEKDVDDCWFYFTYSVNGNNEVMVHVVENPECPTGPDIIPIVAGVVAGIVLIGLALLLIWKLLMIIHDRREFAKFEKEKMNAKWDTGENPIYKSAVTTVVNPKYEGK

CC[C@@H](Nc1cc(F)c(C(=O)N[C@@H](Cc2ccc(-n3c(=O)c4ccncc4n(C)c3=O)nc2)C(=O)O)c(F)c1F)C(F)(F)F [Example 17, (S)-3-(6-(1-methyl-2,4-dioxo-1,4-dihydropyrido[3,4-d]pyrimidin-3(2H)-yl)pyridin-3-yl)-2-(2,3,6-trifluoro-4-(((R)-1,1,1-trifluorobutan-2-yl)amino)benzamido)propanoic acid]
EC50 (α4β7 integrin; Table 1): 0.7 nM
EC50 (α4β1 integrin; Table 1): 58.9 nM

COc1cc(C)n(C)c(=O)c1-c1ccc(C[C@H](NC(=O)c2c(F)cc(N3CCOC[C@@H]3C(F)(F)F)cc2F)C(=O)O)cc1 [Example 30]
EC50 (α4β7 integrin; Table 2): 0.5 nM
EC50 (α4β1 integrin; Table 2): 10.1 nM

Cc1cc(N2CCOC[C@@H]2CC(F)F)cc(F)c1C(=O)N[C@@H](Cc1ccc(-n2c(=O)c3c(n(C)c2=O)CCOC3)cc1)C(=O)O [Example 57, (S)-2-(4-((S)-3-(2,2-difluoroethyl)morpholino)-2-fluoro-6-methylbenzamido)-3-(4-(1-methyl-2,4-dioxo-1,5,7,8-tetrahydro-2H-pyrano[4,3-d]pyrimidin-3(4H)-yl)phenyl)propanoic acid]
EC50 (α4β7 integrin; Table 1): 0.2 nM
EC50 (α4β1 integrin; Table 1): 2.8 nM

Cn1c2c(c(=O)n(-c3ccc(C[C@H](NC(=O)c4c(F)cc(N5CCOC[C@@H]5C(F)(F)F)cc4F)C(=O)O)cc3)c1=O)CCOC2 [Example 61, (S)-2-(2,6-difluoro-4-((R)-3-(trifluoromethyl)morpholino)benzamido)-3-(4-(1-methyl-2,4-dioxo-1,2,4,5,6,8-hexahydro-3H-pyrano[3,4-d]pyrimidin-3-yl)phenyl)propanoic acid]
EC50 (α4β7 integrin; Table 1): 0.4 nM
EC50 (α4β1 integrin; Table 1): 11.5 nM

Cc1cc(C[C@H](NC(=O)c2c(C)cc(N3CCOC[C@@H]3C(F)(F)F)cc2F)C(=O)O)ccc1-c1c(C)n(C)c(=O)n(C)c1=O [Example 31]
EC50 (α4β7 integrin; Table 2): 0.2 nM
EC50 (α4β1 integrin; Table 2): 11.6 nM

Cc1cc(N2CCOC[C@@H]2C(F)(F)F)cc(F)c1C(=O)N[C@@H](Cc1ccc(-n2c(=O)c3ccncc3n(C)c2=O)c(OC(F)(F)F)c1)C(=O)O (atropisomer, axis not shown) [Example 93]
EC50 (α4β7 integrin; Table 2): 0.4 nM
EC50 (α4β1 integrin; Table 2): 25.8 nM

Cc1cc(N2CCOC[C@@H]2C(F)(F)F)cc(F)c1C(=O)N[C@@H](Cc1ccc(-n2c(=O)c3c(C#N)cccc3n(C)c2=O)nc1)C(=O)O [Example 72]
EC50 (α4β7 integrin; Table 2): 0.18 nM
EC50 (α4β1 integrin; Table 2): 4 nM

CC[C@@H](Nc1cc(F)c(C(=O)N[C@@H](Cc2ccc(-c3c(C)n(C)c(=O)n(C)c3=O)cc2)C(=O)O)c(F)c1)C(F)(F)F [Example 32]
EC50 (α4β7 integrin; Table 2): 1.2 nM
EC50 (α4β1 integrin; Table 2): 14.4 nM

CC[C@@H](Nc1cc(F)c(C(=O)N[C@@H](Cc2ccc(-c3c(C(F)(F)F)cc(=O)n(C)c3C)cc2)C(=O)O)c(F)c1)C(F)(F)F [Example 2, (S)-2-(2,6-difluoro-4-(((R)-1,1,1-trifluorobutan-2-yl)amino)benzamido)-3-(4-(1,2-dimethyl-6-oxo-4-(trifluoromethyl)-1,6-dihydropyridin-3-yl)phenyl)propanoic acid]
EC50 (α4β7 integrin; Table 1): 13.6 nM
EC50 (α4β1 integrin; Table 1): 905 nM

Cc1cc(N2CCOC[C@@H]2CC(F)F)cc(F)c1C(=O)N[C@@H](Cc1ccc(-n2c(=O)c3ccncc3n(C)c2=O)nc1)C(=O)O [Example 69, (S)-2-(4-((S)-3-(2,2-difluoroethyl)morpholino)-2-fluoro-6-methylbenzamido)-3-(6-(1-methyl-2,4-dioxo-1,4-dihydropyrido[3,4-d]pyrimidin-3(2H)-yl)pyridin-3-yl)propanoic acid]
EC50 (α4β7 integrin; Table 1): 0.2 nM
EC50 (α4β1 integrin; Table 1): 20.8 nM

Cc1cc(C[C@H](NC(=O)c2c(C)cc(N3CCOC[C@@H]3C(F)(F)F)cc2F)C(=O)O)ccc1-c1nc(C)c(C)n(C)c1=O [Example 42]
EC50 (α4β7 integrin; Table 2): 0.3 nM
EC50 (α4β1 integrin; Table 2): 5.8 nM

Cc1cc(C(F)(F)F)c(-c2ccc(C[C@H](NC(=O)c3c(F)cc(N4CCOC[C@@H]4C(F)(F)F)cc3F)C(=O)O)cc2)c(=O)n1C [Example 3, (S)-2-(2,6-difluoro-4-((R)-3-(trifluoromethyl)morpholino)benzamido)-3-(4-(1,6-dimethyl-2-oxo-4-(trifluoromethyl)-1,2-dihydropyridin-3-yl)phenyl)propanoic acid]
EC50 (α4β7 integrin; Table 1): 0.5 nM
EC50 (α4β1 integrin; Table 1): 18.5 nM

Cc1cc(N2CCOC[C@@H]2C(F)(F)F)cc(F)c1C(=O)N[C@@H](Cc1ccc(-n2c(=O)c3ccncc3n(C)c2=O)cc1)C(=O)O [Example 25, (S)-2-(2-fluoro-6-methyl-4-((R)-3-(trifluoromethyl)morpholino)benzamido)-3-(4-(1-methyl-2,4-dioxo-1,4-dihydropyrido[3,4-d]pyrimidin-3(2H)-yl)phenyl)propanoic acid]
EC50 (α4β7 integrin; Table 1): 0.1 nM
EC50 (α4β1 integrin; Table 1): 3.4 nM

CCOCc1cc(OC)c(-c2ccc(C[C@H](NC(=O)c3c(F)cc(N[C@H](c4ccccc4)C(F)(F)F)cc3F)C(=O)O)cc2)c(OC)c1 [Example 28]
EC50 (α4β7 integrin; Table 2): 7.2 nM
EC50 (α4β1 integrin; Table 2): 70.7 nM

Cc1cc(N2CCOC[C@@H]2CC(F)F)cc(F)c1C(=O)N[C@@H](Cc1ccc(-n2c(=O)c3c(n(C)c2=O)COC3)cc1)C(=O)O [Example 70, (S)-2-(4-((S)-3-(2,2-difluoroethyl)morpholino)-2-fluoro-6-methylbenzamido)-3-(4-(1-methyl-2,4-dioxo-1,2,5,7-tetrahydrofuro[3,4-d]pyrimidin-3(4H)-yl)phenyl)propanoic acid]
EC50 (α4β7 integrin; Table 1): 3.9 nM
EC50 (α4β1 integrin; Table 1): 2.4 nM
